One assay addresses KRAS G12D (Homo sapiens, UniProt P01116, G12D). Kind of assay: In-vitro RAS-RAF binding assay (RRB), HTRF/FRET. On the set-up: Biotinylated KRAS protein amino acids 1-169 (produced at Erasca); made in house. Conditions: Table 2, average of multiple runs of each compound; read-out: Inhibition of RAS-RAF Binding (in-vitro) KRAS (G12D) IC50. Format: biochemical. A digest of the protocol: (§1)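 Compounds preincubated with terbium-labelled biotinylated KRAS (aa 1-169, 30 nM) before 60 min SOS1-catalysed exchange to GTPgS. Binding of the d2-labelled cRAF RBD (30 nM) is read as FRET at equilibrium in duplicate. Buffer: 50 mM HEPES pH 7.5, 100 mM NaCl, 1 mM MgCl2, 1 mM DTT.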
(TR-FRET usually uses a lanthanide donor and a delayed reading to cut background.)

In a further assay the target is T1, KRAS (WT) (Homo sapiens, UniProt P01116).
T1 construct: Biotinylated KRAS protein amino acids 1-169 (produced at Erasca); made in house
Kind of assay: In-vitro RAS-RAF binding assay (RRB), HTRF/FRET. It counts as biochemical. The settings on record: Table 2, average of multiple runs of each compound; read-out: Inhibition of RAS-RAF Binding (in-vitro) KRAS (WT) IC50. A digest of the protocol:
as §1

Assay [1] has as its target T2, KRas G12D fused to HiBiT peptide (Homo sapiens, UniProt P01116, G12D).
T2 construct: endogenous in cells; host or cells: AsPC-1 HiBiT knock-in single clone (Cas9 RNP + ssODN)
Kind of assay: ASPC-1 HiBit assay to determine G12D degradation. Conditions: AsPC-1 HiBiT cells, 24-hour incubation; read-out: ASPC-1 HiBit DC50 (C). Format: cell-based. How it is done: Compounds presented herein induce degradation of the KRas G12D (KRasG12D) upon treatment of engineered cancer cell line.
The degradation of the KRasG12D in cellular environment was measured using engineered homozygous KRasG12D AsPC-1 cell line in which KRas G12D was fused to luminescent HiBiT peptide at the N-terminal. The small (1.3 kDa) HiBiT peptide complements with high affinity to a larger (18 kDa) subunit evolved from NanoLuc (termed LgBiT). The resulting complex (i.e., reconstituted luciferase enzyme) generates bright luminescence that translates to high sensitivity (1 amol), broad dynamic range (four orders of magnitude), and rapid kinetics for real time quantitation.
To generate HiBit KRasG12D knock-in cell line, sgRNA (SEQ. ID NO: 1) and ssODN (SEQ. ID NO: 2) were designed and synthesized at GenScript.
RNP complex was generated by mixing of 100 pmol of Cas9 protein to PCR tubes containing 300 pmol sgRNA incubating the resultant complex at room temperature for 20 min. […] ssODN was added to RNP complex slowly and RNP-ssODN complex was incubated at room temperature for 10 min. RNP-ssODN complex was mixed with […] of AsPC-1 cells (1×10^6 cells total) and electroporated using Nucleofactor (Program CM-150). Cells were then incubated at ambient temperature for 5 min and transferred to a six-well plate containing 2 ml growth medium.
To select pools with the highest luminescence signal, 10^4 cells of parental AsPC-1 and transfected pools were plated in solid white 384-well tissue culture plates. 24 hours after seeding, HiBiT was detected using the Nano-Glo HiBiT Lytic Detection System (Promega) following manufacturer's instructions. Briefly, […] of Nano-Glo HiBiT Lytic Detection Reagent was added directly to the cells and mixed by inversion before recording luminescence on an Envision (Perkin-Elmer) with 0.5 s integration time.
Single clones were isolated from stable pool by limited dilution method and presence of HiBiT knock-in was verified by TA cloning and subsequent sequencing. Additionally, western blotting analysis was conducted to confirm selection of single clones with high luminescence signal.
For DC50S measurements, AsPC-1 HiBiT single clone cells were grown in RPMI 1640 medium (Invitrogen 22400-089) supplemented with 10% fetal bovine serum. Cells were seeded in 384-well tissue culture plates at a density of 7,000 cells/well and allowed to attach for 24 hours.
Test compounds were distributed directly into assay plate with the adjustment for DMSO concentration using Tecan HP D300e. For most of the experiments, the final concentration of compounds starts from 10 μM, 3-fold dilution dose response and 10 doses. […] DMSO final concentration is 1%. Each concentration of exemplary compound was tested as singleton. The negative control wells were cells with DMSO only, and the positive control wells were cells with […] inhibitor.
Following 24-hour incubation with the compounds plate and Nano-Glo® HiBiT Lytic reagents were equilibrated to room temperature. 20 μL of HiBiT Lytic reagent were added to each well. The assay plate was incubated on digital microplate shaker (350 rpm) for 20 min followed by centrifugation at 500 g for 1 min. Luminescence was recorded using Envision (Perkin-Elmer) using aperture 384-L1 with 0.1 s integration time.
HiBiT signal are used to calculate the % degradation at given compound concentration using the following formula:
% Degradation=(1−(Sample HiBiT signal−Ave Min signal)/(Ave Max signal−Ave Min signal))*100%
For DC50 calculation, the data with the hook effect were removed first and DC50S was reported using a 4-parameter fit of dose response curve using GraphPad in those cases where maximum % degradation was >50% and Minimal % degradation was <50%. The decrease in DC50 reflects that the exemplary compound led to a higher level of degradation of KRasG12D than another exemplary compound at specific timepoint of treatment of cancer cell line. […]
(In general: The HiBiT peptide binds its large partner to form an active luciferase.)

The IC50 is the concentration that inhibits the measured activity by half. As a reminder, the DC50 is the concentration at which degradation of the target reaches its halfway point.

T1 sequence (P01116 1-169 isoform P01116-2): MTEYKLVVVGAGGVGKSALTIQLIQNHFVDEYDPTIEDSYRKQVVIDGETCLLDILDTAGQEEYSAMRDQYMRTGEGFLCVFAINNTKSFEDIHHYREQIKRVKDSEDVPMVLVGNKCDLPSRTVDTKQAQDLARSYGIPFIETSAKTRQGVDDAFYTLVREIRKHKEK
Sequence of KRAS G12D (P01116 1-169 isoform P01116-2 G12D): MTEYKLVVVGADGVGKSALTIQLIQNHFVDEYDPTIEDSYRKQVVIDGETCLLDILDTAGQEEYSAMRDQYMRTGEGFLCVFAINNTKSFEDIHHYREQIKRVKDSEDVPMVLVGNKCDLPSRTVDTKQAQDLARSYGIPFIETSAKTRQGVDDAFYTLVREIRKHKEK
T2 sequence (P01116 1-188 isoform P01116-2 G12D): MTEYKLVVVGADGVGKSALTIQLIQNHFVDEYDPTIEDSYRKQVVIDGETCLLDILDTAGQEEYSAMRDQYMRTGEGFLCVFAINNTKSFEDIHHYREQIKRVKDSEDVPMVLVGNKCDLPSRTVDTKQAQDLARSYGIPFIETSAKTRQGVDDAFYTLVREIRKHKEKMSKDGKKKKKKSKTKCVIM

For `C#Cc1c(F)ccc2cc(O)cc(-c3ncc4c(N5CC6CCC(C5)N6)nc(OCCN5CCC(COc6cc(C(C(=O)N7C[C@H](O)C[C@H]7C(=O)N[C@@H](C)c7ccc(-c8scnc8C)cc7)C(C)C)on6)CC5)nc4c3F)c12` (stereo in doubt) [Example 35, (2S,4R)-1-((2R)-2-(3-((1-(2-((4-(3,8-diazabicyclo[3.2.1]octan-3-yl)-7-(8-ethynyl-7-fluoro-3-hydroxynaphthalen-1-yl)-8-fluoropyrido[4,3-d]pyrimidin-2-yl)oxy)ethyl)piperidin-4-yl)methoxy)isoxazol-5-yl)-3-methylbutanoyl)-4-hydroxy-N—((S)-1-(4-(4-methylthiazol-5-yl)phenyl)ethyl)pyrrolidine-2-carboxamide], the IC50 on KRAS G12D worked out at 12.1 nM; on KRAS (WT), 196 nM. Further, the DC50 in assay [1] stood at 467 nM.
On to `C#Cc1c(F)ccc2cc(O)cc(-c3ncc4c(N5CC6CCC(C5)N6)nc(OCCN5CCC(COc6cc([C@H](C(=O)N7C[C@H](O)C[C@H]7C(=O)N[C@@H](C)c7ccc(-c8c(F)cccc8F)cc7)C(C)C)on6)CC5)nc4c3F)c12` [Example 15, (2S,4R)-1-((2R)-2-(3-((1-(2-((4-(3,8-diazabicyclo[3.2.1]octan-3-yl)-7-(8-ethynyl-7-fluoro-3-hydroxynaphthalen-1-yl)-8-fluoropyrido[4,3-d]pyrimidin-2-yl)oxy)ethyl)piperidin-4-yl)methoxy)isoxazol-5-yl)-3-methylbutanoyl)-N—((S)-1-(2′,6′-difluoro-[1,1′-biphenyl]-4-yl)ethyl)-4-hydroxypyrrolidine-2-carboxamide], for which the values for the IC50 on KRAS G12D and at KRAS (WT) were 12.7 nM and 1320 nM, respectively. The DC50 in assay [1] was 112 nM.
In the same order, the values of `C#Cc1c(F)ccc2cc(O)cc(-c3ncc4c(N5CC6CCC(C5)N6)nc(OCCN5CCC(COc6cc([C@H](C(=O)N7C[C@H](O)C[C@H]7C(=O)N[C@@H](C)c7ccc(-c8scnc8C)cc7)C(C)C)on6)CC5)nc4c3F)c12` [Example 60, (2S,4R)-1-((2R)-2-(3-((1-(2-((4-(3,8-diazabicyclo[3.2.1]octan-3-yl)-7-(8-ethynyl-7-fluoro-3-hydroxynaphthalen-1-yl)-8-fluoropyrido[4,3-d]pyrimidin-2-yl)oxy)ethyl)piperidin-4-yl)methoxy)isoxazol-5-yl)-3-methylbutanoyl)-4-hydroxy-N-((S)-1-(4-(4-methylthiazol-5-yl)phenyl)ethyl)pyrrolidine-2-carboxamide] are 9.55 nM, 188 nM and 108 nM.
With `CC(C)[C@@H](C(=O)N1C[C@H](O)C[C@H]1C(=O)N[C@@H](C)c1ccc(-c2c(F)cc(F)cc2F)cc1)c1cc(OCC2(C)CCN(CCOc3nc(N4CC5CCC(C4)N5)c4cc(Cl)c(-c5ccc(F)c6sc(N)c(C#N)c56)c(F)c4n3)CC2)no1` [Example 72, (2S,4R)-1-((2R)-2-(3-((1-(2-((7-(2-amino-3-cyano-7-fluorobenzo[b]thiophen-4-yl)-4-(3,8-diazabicyclo[3.2.1]octan-3-yl)-6-chloro-8-fluoroquinazolin-2-yl)oxy)ethyl)-4-methylpiperidin-4-yl)methoxy)isoxazol-5-yl)-3-methylbutanoyl)-4-hydroxy-N-((S)-1-(2′,4′,6′-trifluoro-[1,1′-biphenyl]-4-yl)ethyl)pyrrolidine-2-carboxamide], the IC50 was 29.4 nM at KRAS G12D and 6730 nM at KRAS (WT). In assay [1], the DC50 is 528 nM.
In the same order, the values of `CC(C)[C@@H](C(=O)N1C[C@H](O)C[C@H]1C(=O)N[C@@H](C)c1ccc(-c2c(F)cccc2F)cc1)c1cc(N2CC3(CCN(CCOc4nc(N5CC6CCC(C5)N6)c5cc(C(F)(F)F)c(-c6ccc(F)c7sc(N)c(C#N)c67)c(F)c5n4)CC3)C2)no1` [Example 77, (2S,4R)-1-((2R)-2-(3-(7-(2-((7-(2-amino-3-cyano-7-fluorobenzo[b]thiophen-4-yl)-4-(3,8-diazabicyclo[3.2.1]octan-3-yl)-8-fluoro-6-(trifluoromethyl)quinazolin-2-yl)oxy)ethyl)-2,7-diazaspiro[3.5]nonan-2-yl)isoxazol-5-yl)-3-methylbutanoyl)-N-((S)-1-(2′,6′-difluoro-[1,1′-biphenyl]-4-yl)ethyl)-4-hydroxypyrrolidine-2-carboxamide] are 17.6 nM, 1100 nM and 330 nM.
In the same order, the values of `C#Cc1c(F)ccc2cc(O)cc(-c3ncc4c(N5CC6CCC(C5)N6)nc(OC[C@@H]5CCCN5CCCOCCC(=O)N[C@H](C(=O)N5C[C@H](O)C[C@H]5C(=O)N[C@@H](C)c5ccc(-c6c(F)cc(F)cc6F)cc5)C(C)(C)C)nc4c3F)c12` [Example 49, (2S,4R)-1-((2S)-2-(3-(3-((2S)-2-(((4-(3,8-diazabicyclo[3.2.1]octan-3-yl)-7-(8-ethynyl-7-fluoro-3-hydroxynaphthalen-1-yl)-8-fluoropyrido[4,3-d]pyrimidin-2-yl)oxy)methyl)pyrrolidin-1-yl)propoxy)propanamido)-3,3-dimethylbutanoyl)-4-hydroxy-N-((S)-1-(2′,4′,6′-trifluoro-[1,1′-biphenyl]-4-yl)ethyl)pyrrolidine-2-carboxamide] are 7.43 nM, 24.9 nM and 324 nM.
`CC(C)[C@@H](C(=O)N1C[C@H](O)C[C@H]1C(=O)N[C@@H](C)c1ccc(-c2c(F)cccc2F)cc1)c1cc(N2CC3(CCN(CCOc4nc(N5CC6CCC(C5)N6)c5cc(Cl)c(-c6ccc(F)c7sc(N)c(C#N)c67)c(F)c5n4)CC3)C2)no1` [Example 70, (2S,4R)-1-((2R)-2-(3-(7-(2-((7-(2-amino-3-cyano-7-fluorobenzo[b]thiophen-4-yl)-4-(3,8-diazabicyclo[3.2.1]octan-3-yl)-6-chloro-8-fluoroquinazolin-2-yl)oxy)ethyl)-2,7-diazaspiro [3.5]nonan-2-yl)isoxazol-5-yl)-3-methylbutanoyl)-N-((S)-1-(2′,6′-difluoro-[1,1′-biphenyl]-4-yl)ethyl)-4-hydroxypyrrolidine-2-carboxamide]: the IC50 amounted to 28.6 nM at KRAS G12D and 5500 nM on KRAS (WT). Also, the DC50 in assay [1] is 501 nM.

(Values after US20240293558A1, “KRAS INHIBITOR CONJUGATES” (Erasca, Inc., priority 2021, published 2024).)
